Activity calls are given as the source filed them. The calls are words filed in the database; no cut-off is given here.
Key:
[1] = system: Mycobacterium tuberculosis; experiment: Antimicrobial activity against antibiotic-resistant Mycobacterium tuberculosis MTB72 at 50 ug/ml disc level; type: functional, organism-based
[2] = system: Mycobacterium tuberculosis; experiment: Antimicrobial activity against antibiotic-resistant Mycobacterium tuberculosis R46 at 50 ug/ml disc level; type: functional, organism-based

In the case of COCc1c(C(C)O)cc(O)c(C)c1OC (configuration not stated), the Activity [1] is reported as “inactive” and the Activity [2] is reported as “inactive”.

From ChEMBL document CHEMBL2331098, “Unprecedented polyketides from a marine sponge-associated Stachylidium sp” (J Nat Prod, 2013)
